This is an account of results in patent publication US9795681B2, “Tamper resistant dosage form comprising an adsorbent and an adverse agent” (Purdue Pharma L.P., priority 2004, dated 2017).

For series [1] the following is noted: administered orally; cited from earlier work.
A short description of series [2]: Adsorption of naltrexone hydrochloride onto activated charcoal from 0.1N HCl, HPLC of liquid phase. The series is classed as physicochemical. Particulars: 37° C.; for Naltrexone adsorbed from solution / Naltrexone adsorbed onto the activated charcoal / Naltrexone content in fluid / Naltrexone content in fluid, HPLC area %: 0.1N aqueous HCl. How it is done: Example 1 describes a non-limiting method for making an adsorbent/adverse agent. The adsorbent used was DARCO activated charcoal obtained from EM Science, an affiliate of Merck KGaA of Darmstadt, Germany. The DARCO activated charcoal used was 20 to 40 mesh black granular charcoal which passed the USP absorptive power test (see The United States Pharmacopeia, 26:404 (2003)) for activated charcoal.
Adsorption of naltrexone: The activated charcoal (5.02 g) was added to a solution of naltrexone hydrochloride (504.26 mg) (obtained from Mallinkrodt, St. Louis, Mo.) in 0.1N HCI (900 mL). The resultant mixture was stirred at 100 rpm for 120 h at 37° C., and the adsorption (or uptake) of naltrexone hydrochloride into the activated charcoal was monitored by measuring the decrease in concentration of the naltrexone hydrochloride in the liquid phase using high performance liquid chromatography (HPLC). The data was used to calculate the amount of naltrexone adsorbed onto the activated charcoal, e.g., after 2 h, as follows: […]

Series [3] can be described thus: Dynamic desorption of the Charcoal/Naltrexone by washing with 0.1N HCl. The class given is physicochemical. Particulars: 1 L aliquots of 0.1N HCl, 25° C. Here is the method: IN HCI. The concentration of naltrexone hydrochloride in the wash filtrates was measured using HPLC as described above.

Counter-ions that a name gives are not always drawn.

Take `C[C@H]1[C@H]2Cc3ccc(O)cc3[C@]1(C)CCN2CC1CC1` [cyclazocine]: the duration of action in series [1] is given as approximately 24 h.
Turning to `O=C1CC[C@@]2(O)[C@H]3Cc4ccc(O)c5c4[C@@]2(CCN3CC2CC2)[C@H]1O5` [naltrexone hydrochloride], the “Naltrexone adsorbed from solution” value is given as 0.00% in series [2] (time 0 min); 23.34% in series [2] (time 10 min); 32.01% in series [2] (time 20 min); 37.62% in series [2] (time 30 min); 41.36% in series [2] (time 40 min); 45.37% in series [2] (time 50 min). For the same compound, the “Naltrexone adsorbed from solution” value in series [2] (time 60 min) was 47.75%; in series [2] (time 70 min), 49.10%; in series [2] (time 80 min), 50.76%; in series [2] (time 90 min), 52.98%; in series [2] (time 100 min), 54.38%; in series [2] (time 120 min), 55.36%. Further, the “Naltrexone adsorbed onto the activated charcoal” value came to 0.00 mg in series [2] (time 0 min); 117.69 mg in series [2] (time 10 min); 161.39 mg in series [2] (time 20 min); 189.69 mg in series [2] (time 30 min); 208.55 mg in series [2] (time 40 min); 228.81 mg in series [2] (time 50 min). The “Naltrexone adsorbed onto the activated charcoal” value came out at 240.76 mg in series [2] (time 60 min); 247.60 mg in series [2] (time 70 min); 255.97 mg in series [2] (time 80 min); 267.16 mg in series [2] (time 90 min); 274.20 mg in series [2] (time 100 min); 279.16 mg in series [2] (time 120 min). In addition, the “Naltrexone content in fluid” value is recorded as 504.26 mg in series [2] (time 0 min); 386.57 mg in series [2] (time 10 min); 342.87 mg in series [2] (time 20 min); 314.57 mg in series [2] (time 30 min); 295.71 mg in series [2] (time 40 min); 275.45 mg in series [2] (time 50 min). For the same compound, the “Naltrexone content in fluid” value in series [2] (time 60 min) stood at 263.50 mg; in series [2] (time 70 min), 256.66 mg; in series [2] (time 80 min), 248.29 mg; in series [2] (time 90 min), 237.10 mg; in series [2] (time 100 min), 230.06 mg; in series [2] (time 120 min) it was 225.10 mg. Moreover, the “Naltrexone content in fluid, HPLC area %” value in series [2] (time 0 min) is listed as 4.836 HPLC area %; in series [2] (time 10 min), 3.707 HPLC area %; in series [2] (time 20 min) it was 3.288 HPLC area %; in series [2] (time 30 min), 3.017 HPLC area %; in series [2] (time 40 min), 2.836 HPLC area %; in series [2] (time 50 min) it was 2.642 HPLC area %. Further, the “Naltrexone content in fluid, HPLC area %” value stood at 2.527 HPLC area % in series [2] (time 60 min); 2.461 HPLC area % in series [2] (time 70 min); 2.381 HPLC area % in series [2] (time 80 min); 2.274 HPLC area % in series [2] (time 90 min); 2.206 HPLC area % in series [2] (time 100 min); 2.159 HPLC area % in series [2] (time 120 min). For the same compound, the “time within which substantially all of the naltrexone adsorption was completed” value in series [2] (onto activated charcoal, 0.1N HCl) was not above 1.5 h. In addition, in series [3], the “wash steps during which the majority of the desorption of naltrexone hydrochloride occurred” value is listed as not above 18 wash steps.
Take `O=C1CC[C@@]2(O)[C@H]3Cc4ccc(O)c5c4[C@@]2(CCN3CC2CC2)[C@H]1O5` [naltrexone]: in series [1], the duration of action is given as approximately 24 h.
